In patent US6596718B1, “7-Morpholin-4yl-benzothiazole amide derivatives” (Hoffmann-La Roche Inc., priority 2001, dated 2003) one finds melting point data, which are given here for 37 compounds.

`COc1ccc(N2CCOCC2)c2sc(C(=O)NCc3cccc(F)c3)nc12` [Example 20, 4-Methoxy-7-morpholin-4-yl-benzothiazole-2-carboxylic acid 3-fluoro-benzylamide]: the melting point was in the range of 152 to 153 °C.
With `COc1ccc(N2CCOCC2)c2sc(C(=O)NCc3ccccc3F)nc12` [Example 21, 4-Methoxy-7-morpholin-4-yl-benzothiazole-2-carboxylic acid 2-fluoro-benzylamide], the melting point lay within 133 to 134 °C.
As to `COc1ccc(N2CCOCC2)c2sc(C(=O)NCc3cccs3)nc12` [Example 23, 4-Methoxy-7-morpholin-4-yl-benzothiazole-2-carboxylic acid (thiophen-2-ylmethyl)-amide], the melting point lay in the range of 174 to 175 °C.
Compound `COc1ccc(N2CCOCC2)c2sc(C(=O)NCC3CC3)nc12` [Example 24, 4-Methoxy-7-morpholin-4-yl-benzothiazole-2-carboxylic acid cyclopropylmethyl-amide] registered a melting point of 152 to 153 °C.
`COc1ccc(CNC(=O)c2nc3c(OC)ccc(N4CCOCC4)c3s2)cc1` [Example 26, 4-Methoxy-7-morpholin-4-yl-benzothiazole-2-carboxylic acid 4-methoxy-benzylamide] had a melting point of 164 to 168 °C.
The compound `COc1cccc(CNC(=O)c2nc3c(OC)ccc(N4CCOCC4)c3s2)c1` [Example 27, 4-Methoxy-7-morpholin-4-yl-benzothiazole-2-carboxylic acid 3-methoxy-benzylamide] gave a melting point of 140 to 144 °C.
In turn, `COc1ccc(N2CCOCC2)c2sc(C(=O)NCCNC(=O)c3ccc(Cl)cc3)nc12` [Example 28, 4-Methoxy-7-morpholin-4-yl-benzothiazole-2-carboxylic acid [2-(4-chloro-benzoylamino)-ethyl]-amide] gave a melting point of 237 to 240 °C.
`COc1ccc(N2CCOCC2)c2sc(C(=O)NCCN3Cc4ccccc4C3=O)nc12` [Example 29, 4-Methoxy-7-morpholin-4-yl benzothiazole-2-carboxylic acid [2-(1-oxo-1,3-dihydro-isoindol-2-yl)-ethyl]-amide]: the melting point lay in the range of 199 to 205 °C.
Take `COc1ccc(N2CCOCC2)c2sc(C(=O)NCC3(c4ccccc4)CCOCC3)nc12` [Example 30, 4-Methoxy-7-morpholin-4-yl-benzothiazole-2-carboxylic acid (4-phenyl-tetrahydro-pyran-4-ylmethyl)-amide]: the melting point is 144 to 148 °C.
`COc1ccc(N2CCOCC2)c2sc(C(=O)NCc3ccncc3)nc12` [Example 31, 4-Methoxy-7-morpholin-4-yl-benzothiazole-2-carboxylic acid (pyridin-4-ylmethyl)-amide]: the melting point is 207 to 209 °C.
`COc1ccc(N2CCOCC2)c2sc(C(=O)NCCCN3C(=O)c4ccccc4C3=O)nc12` [Example 32, 4-Methoxy-7-morpholin-4-yl-benzothiazole-2-carboxylic acid [3-(1,3-dioxo-1,3-dihydro-isoindol-2-yl)-propyl]-amide] registered a melting point of 200 to 202 °C.
The figure for `COc1ccc(N2CCOCC2)c2sc(C(=O)NCCCCN3C(=O)c4ccccc4C3=O)nc12` [Example 33, 4-Methoxy-7-morpholin-4-yl-benzothiazole-2-carboxylic acid [4-(1,3-dioxo-1,3-dihydro-isoindol-2-yl)-butyl]-amide] is 114 to 118 °C; for `COc1ccc(N2CCOCC2)c2sc(C(=O)NCCN3C(=O)c4ccccc4C3=O)nc12` [Example 34, 4-Methoxy-7-morpholin-4-yl-benzothiazole-2-carboxylic acid [2-(1,3-dioxo-1,3-dihydro-isoindol-2-yl)-ethyl]-amide] it is 231 to 233 °C; for `COc1ccc(N2CCOCC2)c2sc(C(=O)NCC3CCCCC3)nc12` [Example 35, 4-Methoxy-7-morpholin-4-yl-benzothiazole-2-carboxylic acid cyclohexylmethyl-amide] it is 150 to 151 °C.
Regarding `COc1ccc(N2CCOCC2)c2sc(C(=O)NCC3Cc4ccccc4C(=O)N3)nc12` (stereo not shown) [Example 36, 4-Methoxy-7-morpholin-4-yl-benzothiazole-2-carboxylic acid (1-oxo-1,2,3,4-tetrahydro-isoquinolin-3-ylmethyl)-amide], the melting point lay within 152 to 155 °C.
Turning to `COc1ccccc1C(=O)NCCNC(=O)c1nc2c(OC)ccc(N3CCOCC3)c2s1` [Example 37, 4-Methoxy-7-morpholin-4-yl-benzothiazole-2-carboxylic acid [2-(2-methoxy-benzoylamino)-ethyl]-amide], the melting point lay within 180 to 183 °C.
Compound `COc1ccc(N2CCOCC2)c2sc(C(=O)NCCc3ccccn3)nc12` [Example 38, 4-Methoxy-7-morpholin-4-yl-benzothiazole-2-carboxylic acid (2-pyridin-2-yl-ethyl)-amide] showed a melting point of 184 to 185 °C.
The same measure for `COc1ccc(N2CCOCC2)c2sc(C(=O)NCC(=O)c3ccccc3)nc12` [Example 39, 4-Methoxy-7-morpholin-4-yl-benzothiazole-2-carboxylic acid (2-oxo-2-phenyl-ethyl)-amide]: 197 to 200 °C.
With `COc1ccc(N2CCOCC2)c2sc(C(=O)NCCCc3ccccc3)nc12` [Example 40, 4-Methoxy-7-morpholin-4-yl-benzothiazole-2-carboxylic acid (3-phenyl-propyl)-amide], the melting point was determined as 147 °C.
Regarding `COc1ccc(N2CCOCC2)c2sc(C(=O)NCC3CCCO3)nc12` (stereo not shown) [Example 41, 4-Methoxy-7-morpholin-4-yl-benzothiazole-2-carboxylic acid (tetrahydro-furan-2-ylmethyl)-amide], the melting point lay within 171 to 172 °C.
Consider `COc1ccc(N2CCOCC2)c2sc(C(=O)NNC(=O)c3cccnc3)nc12` [Example 44, Nicotinic acid N′-(4-methoxy-7-morpholin-4-yl-benzothiazole-2-carbonyl)-hydrazide], for which the melting point was in the range of 222 to 224 °C.
`COc1ccc(N2CCOCC2)c2sc(C(=O)NNC(=O)c3ccncc3)nc12` [Example 45, Isonicotinic acid N′-(4-methoxy-7-morpholin-4-yl-benzothiazole-2-carbonyl)-hydrazide] showed a melting point of 171 to 174 °C.
The compound `COc1ccc(N2CCOCC2)c2sc(C(=O)NNC(=O)c3ccccc3)nc12` [Example 46, 4-Methoxy-7-morpholin-4-yl-benzothiazole-2-carboxylic acid N′-benzoyl-hydrazide] displayed a melting point above 260 °C.
As for `COc1ccc(N2CCOCC2)c2sc(C(=O)NC(c3ccccc3)c3ccccc3)nc12` [Example 47, 4-Methoxy-7-morpholin-4-yl-benzothiazole-2-carboxylic acid benzhydryl-amide], the melting point fell in the range of 166 to 168 °C.
Consider `COc1ccc(N2CCOCC2)c2sc(C(=O)NCCc3ccncc3)nc12` [Example 48, 4-Methoxy-7-morpholin-4-yl-benzothiazole-2-carboxylic acid (2-pyridin-4-yl-ethyl)-amide], for which the melting point fell in the range of 185 to 188 °C.
Regarding `COc1ccc(N2CCOCC2)c2sc(C(=O)NCCc3cccc(NC(C)=O)c3)nc12` [Example 50, 4-Methoxy-7-morpholin-4-yl-benzothiazole-2-carboxylic acid [2-(3-acetylamino-phenyl)-ethyl]-amide], the melting point fell in the range of 165 to 166 °C.
As for `COc1ccc(N2CCOCC2)c2sc(C(=O)NNc3ccccc3)nc12` [Example 51, 4-Methoxy-7-morpholin-4-yl-benzothiazole-2-carboxylic acid N′-phenyl-hydrazide], the melting point was 226 to 227 °C.
The compound `COc1ccc(N2CCOCC2)c2sc(C(=O)NNC(=O)c3ccccn3)nc12` [Example 52, Pyridine-2-carboxylic acid N′-(4-methoxy-7-morpholin-4-yl-benzothiazole-2-carbonyl)-hydrazide] showed a melting point of 225 to 226 °C.
On to `COc1ccc(N2CCOCC2)c2sc(C(=O)Nc3ccncc3)nc12` [Example 53, 4-Methoxy-7-morpholin-4-yl-benzothiazole-2-carboxylic acid pyridin-4-ylamide], for which the melting point is 206 to 207 °C.
`COc1cc(OC)cc(C(=O)NNC(=O)c2nc3c(OC)ccc(N4CCOCC4)c3s2)c1` [Example 56, 3,5-Dimethoxy-benzoic acid N′-(4-methoxy-7-morpholin-4-yl-benzothiazole-2-carbonyl)-hydrazide]: the melting point fell in the range of 146 to 148 °C.
As to `COc1ccc(N2CCOCC2)c2sc(C(=O)NCCc3ccccc3F)nc12` [Example 58, 4-Methoxy-7-morpholin-4-yl-benzothiazole-2-carboxylic acid [2-(2-fluoro-phenyl)-ethyl]-amide], the melting point lay in the range of 151 to 153 °C.
For `COc1ccc(N2CCOCC2)c2sc(C(=O)NCCc3cccc(C(F)(F)F)c3)nc12` [Example 60], the melting point was 106 to 108 °C.
The compound `COc1ccc(N2CCOCC2)c2sc(C(=O)NCCc3ccc(C)cc3)nc12` [Example 61, 4-Methoxy-7-morpholin-4-yl-benzothiazole-2-carboxylic acid (2-p-tolyl-ethyl)-amide] returned a melting point of 136 to 138 °C.
In turn, `COc1ccc(C(=O)CNC(=O)c2nc3c(OC)ccc(N4CCOCC4)c3s2)cc1` [Example 66, 4-Methoxy-7-morpholin-4-yl-benzothiazole-2-carboxylic acid [2-(4-methoxy-phenyl)-2-oxo-ethyl]-amide] yielded a melting point of 176 to 178 °C.
`COc1ccc(N2CCOCC2)c2sc(C(=O)NC(c3ccccc3)c3ccccn3)nc12` (stereo not shown) [Example 67, 4-Methoxy-7-morpholin-4-yl-benzothiazole-2-carboxylic acid (phenyl-pyridin-2-yl-methyl)-amide]: the melting point is 219 to 221 °C.
As for `COc1ccc(CCNC(=O)c2nc3c(OC)ccc(N4CCOCC4)c3s2)cc1` [Example 68, 4-Methoxy-7-morpholin-4-yl-benzothiazole-2-carboxylic acid [2-(4-methoxy-phenyl)-ethyl]-amide], the melting point was in the range of 69 to 71 °C.
The same measure for `COc1ccc(N2CCOCC2)c2sc(C(=O)NCc3csc4ccccc34)nc12` [Example 69, 4-Methoxy-7-morpholin-4-yl-benzothiazole-2-carboxylic acid (benzo[b]thiophen-3-ylmethyl)-amide]: 187 to 189 °C.

As usually defined, the melting point is the temperature of the solid-liquid transition.
